Measured values as given in patent publication US11447638B2, “Acetalanthraquinone derivatives useful for cellular staining” (BIOSTATUS LIMITED, priority 2016, dated 2022).
One block for each compound: values may come before it.

Experiments:
A549 live cells = assay: Loading of A549 live cells, wide-field fluorescence microscopy; format: cell-based, human; conditions: 20 μM, 30 min incubation, FIG. 3
Experimental: (§1) Before analysis, cells were incubated at 37° C. in the dark for the period designated. Samples were analysed directly without any further washing step. For live cell labelling cells were seeded, plated in a similar way, into a similar multi-well dish for optimal optical performance and could be used across all microscope platforms.
(§2) This basic protocol was the standard for testing the patterns of AAQ agents at 20 μM, compared to 20 μM of DRAQ5 as the benchmark reference (both in terms of cellular location and ability to detect the red fluorescence).
Low resolution wide-field fluorescence microscopy was used to evaluate cell uptake and localisation of the probe compounds. The system was an Axiovert 100 microscope (Carl Zeiss, Welwyn Garden City, UK) ×10 0.3 NA air objective lens and an ORCA-ER CCD camera (Hamamatsu, Reading, UK). Illumination was controlled by a shutter in front of the transmission lamp. Image capture was controlled using Metamorph software. Human non-small cell lung cancer A549 cell line was used as the cell model to determine whether variation of the probe loading and localisation occurred in cell population sustaining a “side population” (SP) (Smith P J, Wiltshire M, Chappell S C, Cosentino L, Burns P A, Pors K, Errington R J. Kinetic analysis of intracellular Hoechst 33342—DNA interactions by flow cytometry: misinterpretation of side population status? Cytometry A 2013; 83:161-9) with a known capacity to efflux xenobiotic molecules, including the DNA dye Hoechst 33342.
Cells were incubated for 30 min with each compound and then images were collected at a 30 ms exposure time using low resolution wide-field fluorescence microscopy. Using an Axiovert 100 microscope (Carl Zeiss, Welwyn Garden City, UK) ×10 0.3 NA air objective lens and an ORCA-ER CCD camera (Hamamatsu, Reading, UK). Illumination was controlled by a shutter in front of the transmission lamp. Image capture was controlled using Metamorph software. The calibration bar represents 50 μm.

[1] = Absorption and fluorescence spectra of compounds in PBS or HEPES; format: physicochemical; conditions: for fluorescence emission, 540 nm (Ex in PBS): excited at 540 nm; for fluorescence emission, 540 nm (Ex in PBS) / fluorescence emission, λ1 nm (Ex in HEPES) / fluorescence emission, λ1 nm (Ex in PBS): 20 μM; for fluorescence emission, λ1 nm (Ex in HEPES) / fluorescence emission, λ1 nm (Ex in PBS): excited at absorption peak 1 (λ1); for peak excitation wavelength: excitation wavelength used for fluorescence spectra of FIG. 1A/1B
Experimental: The compounds were exited at 540 nm and at the wavelength of their absorption peak 1 (λ1 nm). The far-red fluorescent DNA dye DRAQ5 was used as reference.
Compounds were dissolved in DMSO (Sigma) to 20 mM stock concentration. DRAQ5 (Biostatus Ltd) was used as a control anthraquinone agent dissolved in deionised water. Working solutions were prepared in PBS (phosphate buffered saline; Sigma) or HEPES (4-(2-hydroxyethyl)-1-piperazineethanesulfonic acid; Sigma) at 20 or 40 μM. Probe solutions (20 μM), respectively in PBS or HEPES, were pipetted into a 1 mL quartz cuvette (Thermo Fisher Scientific). After obtaining baseline spectra in relevant buffer to zero the instrument, absorbance measurements were obtained using a Beckmann Coulter DU 800 UV/Visible spectrophotometer. The excitation wavelengths were scanned from 280 to 800 nm. Fluorescent spectral scans were performed using a Perkin Elmer LS-50B Luminescence spectrophotometer. To obtain emission scans, the excitation wavelength was set accordingly to the maximum values for each agent or another designated excitation wavelength that matches typical laser lines; and the emission wavelength were scanned from 400 nm to 900 nm in 1 nm increments. A Xenon flash lamp was used as the light source, with the lamp energy set to high. For each data point ten measurements were acquired with the photomultiplier tube sensitivity set at 125.
Compounds were excited at a wavelength corresponding to the first absorbance peak 1 (FIG. 1A and FIG. 1B show absorption (line) and fluorescence (dots) spectra of compounds; both are normalised to peak value.

A549 = assay: MTT cellular viability (growth inhibition) assay, A549; format: cell-based; conditions: Homo sapiens, 0.25-100 μM, 72 h, Table 3
Experimental: (§3) The viability of A549 or MCF7 in response to compounds was determined using the MTT (3-(4,5-dimethylthiazolyl-2-)-2, 5-diphenyltetrazolium bromide) assay according to the protocol set out in Mosmann T., Rapid colorimetric assay for cellular growth and survival: application to proliferation and cytotoxicity assays. Journal of immunological methods 1983; 65:55-63.
(§4) Initially, cells were seeded into a rounded-bottom 96 well plate (Corning) at six different cell seeding densities (0.5×104, 1×104, 2×104, 3×104, 4×104, and 5×104) per mL of R10 media (cells/mL) in order to optimise the assay and establish the most suitable seeding assay. Concentration of 1×10^4 cells/mL was determined to be the optimum seeding density for both cell lines for 96 h total incubation. A control lane contained supplemented R10 only. The 96 well plates were incubated overnight at 37° C., 5% CO2 and 100% humidity to allow cell adhesion. Cells were then treated respectively with novel AAQs (0.25-100 μM) or growth inhibition (IC50) of compounds of the invention was studied against MCF7 and A549 cancer cell lines. Compounds were tested with a concentration range between 0.25 and 100 μM for 72 h and doxorubicin, as positive cytotoxic control, was tested in parallel at the same doses.

MCF7 = assay: MTT cellular viability (growth inhibition) assay, MCF7; format: cell-based; conditions: Homo sapiens, 0.25-100 μM, 72 h, Table 3
Experimental: as §3, §4

U-2 OS cells = assay: Confocal laser scanning microscopy (CLSM) localisation analysis; format: cell-based, human; conditions: 30 min incubation, Ex 637 nm, Em >665 nm, FIG. 4 and 5
Experimental: Confocal laser scanning microscopy (CLSM) was used to analyse the localisation of compounds BST-100, BST-101 and BST-106 with the U-2 OS cells, as it permitted the acquisition of volume limited optical sections through the cell and media. Excitation (637 nm) and emission (>665 nm) values for the probe analysis were the optimal conditions. The data sets obtained were processed and assembled into a single maximum projection image.
The patterns were analysed after 30 min incubation at different z depths and eliminating the solution background. The nucleus/cytoplasm ratio was calculated to quantify the localisation of the probe per cell.
A Radiance CLSM (BioRad Microscience) was used attached to an inverted Nikon microscope. Image acquisition was performed using excitation (637 nm) and emission (>665 nm) wavelengths. The histogram plot reports the nucleus/cytoplasm index to determine DNA binding in live cells. The calibration bar represents 10 μm.
The compounds BST-108, BST-109 were analysed in the same way.

A549 cells = assay: Flow cytometry analysis of cell uptake before/after hydrolysis; format: cell-based, human; conditions: 20 μM, 30 min; for % ile (25): low loader cell population
Experimental: Flow cytometry analysis was performed to evaluate the effect of pre-treatment with HCl to generate an active aldehyde on the cell uptake properties. A549 cells were incubated for 30 min with compounds of Formula (I) and its hydrolysed forms (20 μM) prior to analysis. The rate of uptake was tested in A549 cell culture media and in Aldefluor buffer, containing the MDR-blocker verapamil (Pearce and Bonnet 2007), to evaluate the effect in uptake with/without the Aldefluor assay system. Analysis was conducted in the viable subset of cells, corresponding to ˜95% of the total amount under investigation.
Aldefluor buffer contained verapamil vs. cell media. The cells were incubated with 20 μM of the respective AAQ/HAAQs (30 min) before analysis
Statistical analysis of A549 uptake before/after hydrolysis was also studied. Experiments were performed in cell media versus Aldefluor buffer. Data were processed using FlowJo software (Tree Star). DRAQ5 was used to set the dynamic range and as control dye and empty cells were used to determine auto-fluorescence.

[2] = tested on: fixed human osteosarcoma U-2 OS cells; assay: Labelling of fixed cells, wide-field fluorescence microscopy; format: cell-based; conditions: 20 μM, 1 h exposure in PBS, FIG. 2
Experimental: Cells were seeded in a 24 well coverslip bottomed-plate, cultured overnight in McCoys media. 24 or 48 hours later the cells were washed gently with 3×2 mL PBS per well. The PBS was removed and 0.5 mL of 4% paraformaldehyde solution [a 4% paraformaldehyde solution in PBS was made fresh each time from a 16% stock solution (Thermo Fisher Scientific)] was added in each well and cells were incubated for 30 min. The paraformaldehyde was removed and cells were washed 3×2 mL PBS per well. 1 mL of PBS or HEPES was added to each well.
as §1, §2
Low resolution wide-field fluorescence microscopy was used to evaluate cell labelling in fixed human osteosarcoma U-2 OS cells. The system was an Axiovert 100 microscope (Carl Zeiss, Welwyn Garden City, UK) ×10 0.3 NA air objective lens and an ORCA-ER CCD camera (Hamamatsu, Reading, UK). Illumination was controlled by a shutter in front of the transmission lamp. Image capture was controlled using Metamorph software. This evaluates the ability of the compounds to label cellular compartments without active uptake or efflux prohibiting delivery into the given cell. Image collection was performed after 1 h of exposure to probes in PBS. The calibration bar represents 50 μm.

[3] = solution: Aldefluor buffer with verapamil

Structure (SMILES): COC(CNC(=O)CCNc1ccc(NCCC(=O)NCC(OC)OC)c2c1C(=O)c1ccccc1C2=O)OC [BST-102, 3,3′-(9,10-Dioxo-9,10-dihydroanthracene-1,4-diyl)bis(azanediyl)bis(N-(2,2-dimethoxyethyl)propanamide)]
peak excitation wavelength [1]: 585 nm | fluorescence emission, 540 nm (Ex in PBS) [1]: 670 nm | fluorescence emission, λ1 nm (Ex in HEPES) [1]: 663 nm | fluorescence emission, λ1 nm (Ex in PBS) [1]: 661 nm | IC50 (A549): > 100 µM | IC50 (MCF7): 1.75 µM

Structure (SMILES): COC(CNC(=O)CCNc1ccc(NCCC(=O)NCC(OC)OC)c2c1C(=O)c1c(O)ccc(O)c1C2=O)OC [BST-104, 3,3′-(5,8-dihydroxy-9,10-dioxo-9,10-dihydroanthracene-1,4diyl)bis(azanediyl)bis(N-(2,2-dimethoxyethyl)propanamide)]
fluorescence emission, 540 nm (Ex in PBS) [1]: 712 nm | fluorescence emission, λ1 nm (Ex in HEPES) [1]: 726 nm | fluorescence emission, λ1 nm (Ex in PBS) [1]: 684 nm

Structure (SMILES): COC(CCCCNc1ccc(NCCCCC(OC)OC)c2c1C(=O)c1c(O)ccc(O)c1C2=O)OC [BST-100, 1,4-Bis(5,5-dimethoxypentylamino)-5,8-dihydroxyanthracene-9,10-dione]
subcellular localisation by CLSM (U-2 OS cells): low levels of probe in the perinuclear region, with probable overload in Golgi body and large vesicles | peak excitation wavelength [1]: 584 nm | fluorescence emission, λ1 nm (Ex in HEPES) [1]: 740 nm | fluorescence emission, λ1 nm (Ex in PBS) [1]: 747.5 nm

Structure (SMILES): CN(C)CCNc1ccc(O)c2c1C(=O)c1c(O)ccc(NCCN(C)C)c1C2=O [DRAQ5, reference compound]
Median (fluorescence, uptake) (A549 cells; solution: media): 217.4 | % ile (25) (A549 cells; solution: media): 191.27 | fluorescence emission, 540 nm (Ex in PBS) [1]: 635 nm | fluorescence emission, λ1 nm (Ex in HEPES) [1]: >665 nm | fluorescence emission, λ1 nm (Ex in PBS) [1]: >665 nm

Structure (SMILES): COC(CCCCNc1ccc(NCCN(C)C)c2c1C(=O)c1ccccc1C2=O)OC [BST-106, 1-(5,5-Dimethoxypentylamino)-4-(2-(dimethylamino)ethylamino) anthracene-9,10-dione]
Median (fluorescence, uptake) (A549 cells; [3]): 96.13 | % ile (25) (A549 cells; [3]): 81.66 | Median (fluorescence, uptake) (A549 cells; solution: media): 101.48 | % ile (25) (A549 cells; solution: media): 84.64 | fluorescence brightness / background in live cells (A549 live cells): high background | staining pattern in live cells (A549 live cells): heterogeneous cytoplasmic staining | fluorescence brightness / background in fixed cells [2]: very bright background | staining pattern in fixed cells [2]: diffuse cytoplasmic staining, with some perinuclear and nucleoli labelling | subcellular localisation by CLSM (U-2 OS cells): additional nuclear signal | peak excitation wavelength [1]: 584 nm | fluorescence emission, 540 nm (Ex in PBS) [1]: 670 nm | fluorescence emission, λ1 nm (Ex in HEPES) [1]: 664 nm | fluorescence emission, λ1 nm (Ex in PBS) [1]: 660 nm | IC50 (A549): 11.7 µM | IC50 (MCF7): 11.3 µM

The next lines start with results.

fluorescence emission, 540 nm (Ex in PBS) [1]: 684 nm | fluorescence emission, λ1 nm (Ex in HEPES) [1]: 684 nm | fluorescence emission, λ1 nm (Ex in PBS) [1]: 690.5 nm
Structure (SMILES): COC(CN(C)CCNc1ccc(NCCN(C)CC(OC)OC)c2c1C(=O)c1c(O)ccc(O)c1C2=O)OC [BST-201, 1,4-bis((2-((2,2-dimethoxyethyl)(methyl)amino)ethyl)amino)-5,8-dihydroxyanthracene-9,10-dione]
staining pattern in live cells (A549 live cells): perinuclear accumulation

IC50 (A549): 0.05 µM | IC50 (MCF7): 0.028 µM
Structure (SMILES): COc1cccc2c1C(=O)c1c(O)c3c(c(O)c1C2=O)C[C@@](O)(C(=O)CO)C[C@@H]3O[C@H]1C[C@H](N)[C@H](O)[C@H](C)O1 [Doxorubicin, doxorubicin, reference compound]

IC50 (A549): 17.5 µM | IC50 (MCF7): 1.66 µM
Structure (SMILES): COC(CCCCNc1ccc(NCCN(C)C)c2c1C(=O)c1c(O)ccc(O)c1C2=O)OC [BST-107, 1-(5,5-Dimethoxypentylamino)-4-(2-(dimethylamino)ethylamino)-5,8-dihydroxyanthracene-9,10-dione]

fluorescence emission, λ1 nm (Ex in HEPES) [1]: 680 nm
Structure (SMILES): COC(CN(CCNc1ccc(NCCN(Cc2ccccc2)CC(OC)OC)c2c1C(=O)c1c(O)ccc(O)c1C2=O)Cc1ccccc1)OC [BST-202, 1,4-bis((2-(benzyl(2,2-dimethoxyethyl)amino)ethyl)amino)-5,8-dihydroxyanthracene-9,10-dione]
